Source: ChEMBL document CHEMBL6074700, “Furan- and Furopyrimidine-Based Derivatives: Synthesis, VEGFR-2 Inhibition, and In Vitro Cytotoxicity” (ACS Med Chem Lett, 2024)
Active and inactive are the calls of the source. No cut-off for these calls is given here.

How the values were obtained:
[1] = target: Vascular endothelial growth factor receptor 2 (Homo sapiens, UniProt P35968); assay: Inhibition of VEGFR2 (unknown origin)
[2] = system: HepG2; assay: Antiproliferative activity against human HepG2 cells incubated for 72 hrs; conditions: HepG2, 72 h
[3] = system: MCF7; assay: Antiproliferative activity against human MCF7 cells incubated for 72 hrs; conditions: MCF7, 72 h
[4] = system: A549; assay: Antiproliferative activity against human A549 cells incubated for 72 hrs; conditions: A549, 72 h
[5] = system: HT-29; assay: Antiproliferative activity against human HT-29 cells incubated for 72 hrs; conditions: HT-29, 72 h
[6] = system: PC-3; assay: Antiproliferative activity against human PC-3 cells incubated for 72 hrs; conditions: PC-3, 72 h
[7] = system: WI-38; assay: Antiproliferative activity against human WI-38 cells incubated for 72 hrs; conditions: WI-38, 72 h
[8] = system: HUVEC; assay: Cytotoxicity against HUVEC cells; conditions: Homo sapiens
[9] = system: HT-29; assay: Induction of cell cycle arrest in human HT-29 cells assessed as accumulation of cells at G2/M phase at IC50 measured after 24 hrs by flow cytometry; type: functional, cell-based
[10] = system: HT-29; assay: Induction of apoptosis in human HT-29 cells assessed as increase in total apoptotic cells measured after 24 hrs by flow cytometry; type: functional, cell-based

Chain of Vascular endothelial growth factor receptor 2 (P35968 whole entry): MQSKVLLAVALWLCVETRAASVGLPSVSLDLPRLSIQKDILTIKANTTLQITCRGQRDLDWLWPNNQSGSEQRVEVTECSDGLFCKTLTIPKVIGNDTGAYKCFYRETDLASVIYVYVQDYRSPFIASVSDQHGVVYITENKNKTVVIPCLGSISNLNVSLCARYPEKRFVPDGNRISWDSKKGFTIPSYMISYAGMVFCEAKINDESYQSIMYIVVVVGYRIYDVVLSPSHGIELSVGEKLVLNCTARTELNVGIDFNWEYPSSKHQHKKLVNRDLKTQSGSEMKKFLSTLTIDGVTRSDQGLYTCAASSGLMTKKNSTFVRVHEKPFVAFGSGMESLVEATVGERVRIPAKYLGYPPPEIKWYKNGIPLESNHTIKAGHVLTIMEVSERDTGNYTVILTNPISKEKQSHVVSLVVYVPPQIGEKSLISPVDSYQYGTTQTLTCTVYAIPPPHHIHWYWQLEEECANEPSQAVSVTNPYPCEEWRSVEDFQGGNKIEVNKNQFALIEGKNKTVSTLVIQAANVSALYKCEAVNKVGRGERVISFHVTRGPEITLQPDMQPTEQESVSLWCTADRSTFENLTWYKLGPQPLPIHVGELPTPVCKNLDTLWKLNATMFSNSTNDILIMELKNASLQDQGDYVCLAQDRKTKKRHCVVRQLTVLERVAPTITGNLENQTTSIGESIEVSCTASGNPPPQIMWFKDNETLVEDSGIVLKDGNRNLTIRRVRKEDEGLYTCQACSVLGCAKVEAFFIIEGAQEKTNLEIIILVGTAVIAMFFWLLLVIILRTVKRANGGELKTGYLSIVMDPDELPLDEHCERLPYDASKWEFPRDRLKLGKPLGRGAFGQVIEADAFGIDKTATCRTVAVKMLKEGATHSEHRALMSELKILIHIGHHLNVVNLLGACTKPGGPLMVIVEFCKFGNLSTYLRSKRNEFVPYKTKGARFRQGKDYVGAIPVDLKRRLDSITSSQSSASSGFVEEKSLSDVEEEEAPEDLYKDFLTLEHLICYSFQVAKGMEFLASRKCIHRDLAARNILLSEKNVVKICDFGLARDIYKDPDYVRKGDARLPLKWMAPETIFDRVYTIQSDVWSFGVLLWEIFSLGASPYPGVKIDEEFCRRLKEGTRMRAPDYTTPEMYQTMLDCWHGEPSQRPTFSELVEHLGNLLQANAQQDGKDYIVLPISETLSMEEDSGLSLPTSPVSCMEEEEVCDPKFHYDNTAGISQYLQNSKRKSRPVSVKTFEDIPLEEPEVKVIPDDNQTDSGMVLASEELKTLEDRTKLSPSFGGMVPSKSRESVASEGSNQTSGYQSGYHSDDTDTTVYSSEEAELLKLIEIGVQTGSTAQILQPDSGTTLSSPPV

IC50 [2]	IC50 [3]	IC50 [4]	IC50 [5]	IC50 [6]	SMILES	IC50 [7]	also measured
–	–	–	–	–	Cc1cccc(-c2nc3c4c(-c5ccccc5)c(-c5ccccc5)oc4ncn3n2)c1	–	IC50 [1]: 0.121 µM
11.2 µM	9.06 µM	10.1 µM	12.1 µM	23.2 µM	N#Cc1c(N=CNc2ccc(Br)cc2)oc(-c2ccccc2)c1-c1ccccc1	27.4 µM	–
–	–	–	–	–	Cc1ccc(-c2nc3c4c(-c5ccccc5)c(-c5ccccc5)oc4ncn3n2)cc1	–	IC50 [1]: 0.125 µM
–	–	–	–	–	COc1ccc(-c2nc3c4cc(-c5ccc(OC)cc5)oc4ncn3n2)cc1	–	IC50 [8]: 22.6 µM
–	–	–	–	–	N=c1c2cc(-c3ccccc3)oc2ncn1/N=C/c1ccc(Br)cc1	–	IC50 [8]: 61.2 µM
13.1 µM	11.4 µM	14.5 µM	21.4 µM	22.1 µM	O=C(Nc1ncnc2oc(-c3ccccc3)c(-c3ccccc3)c12)c1ccc([N+](=O)[O-])cc1	26.5 µM	–
7.28 µM	6.72 µM	6.66 µM	8.51 µM	14.5 µM	N#Cc1c(N=CNc2ccc(Cl)cc2)oc(-c2ccccc2)c1-c1ccccc1	30 µM	Activity [9]: Active; Activity [10]: Active
